The results in this text go back to patent US20230203025A1, “ENHANCERS OF PARTICULATE GUANYLYL CYCLASE RECEPTOR A” (Mayo Foundation for Medical Education and Research, priority 2020, published 2023).

In one data set the target is T1, pGC-A (Homo sapiens, UniProt P16066).
T1 construct: expressed in transfected cells; host or cells: HEK293
T1 sequence (P16066 33-1061): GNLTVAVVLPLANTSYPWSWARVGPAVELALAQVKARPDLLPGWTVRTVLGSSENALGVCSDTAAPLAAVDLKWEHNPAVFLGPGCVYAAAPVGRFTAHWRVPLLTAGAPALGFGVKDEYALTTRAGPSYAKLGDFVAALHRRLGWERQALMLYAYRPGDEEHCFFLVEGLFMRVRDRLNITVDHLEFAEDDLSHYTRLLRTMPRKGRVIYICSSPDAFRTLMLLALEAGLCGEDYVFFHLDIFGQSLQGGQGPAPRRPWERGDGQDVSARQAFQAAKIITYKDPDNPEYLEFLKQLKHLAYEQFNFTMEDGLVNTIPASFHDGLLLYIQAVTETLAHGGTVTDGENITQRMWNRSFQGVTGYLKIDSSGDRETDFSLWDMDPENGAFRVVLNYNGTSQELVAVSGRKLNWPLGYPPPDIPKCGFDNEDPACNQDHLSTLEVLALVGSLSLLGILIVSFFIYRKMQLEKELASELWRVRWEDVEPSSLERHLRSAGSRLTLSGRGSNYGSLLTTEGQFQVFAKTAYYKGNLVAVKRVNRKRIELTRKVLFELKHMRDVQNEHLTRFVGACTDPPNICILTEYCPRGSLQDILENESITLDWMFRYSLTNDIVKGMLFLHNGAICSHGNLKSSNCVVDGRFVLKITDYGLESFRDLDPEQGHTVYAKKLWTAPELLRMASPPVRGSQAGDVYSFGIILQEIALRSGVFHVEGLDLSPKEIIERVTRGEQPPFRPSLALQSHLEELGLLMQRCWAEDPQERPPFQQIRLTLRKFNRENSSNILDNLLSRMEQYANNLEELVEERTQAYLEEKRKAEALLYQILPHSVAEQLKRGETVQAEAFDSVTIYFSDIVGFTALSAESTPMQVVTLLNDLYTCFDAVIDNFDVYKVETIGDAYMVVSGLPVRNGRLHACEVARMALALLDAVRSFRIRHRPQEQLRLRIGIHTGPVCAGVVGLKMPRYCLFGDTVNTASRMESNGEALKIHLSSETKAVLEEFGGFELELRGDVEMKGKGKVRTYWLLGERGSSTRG
T1 sequence (P01160 124-151 partner limits assumed): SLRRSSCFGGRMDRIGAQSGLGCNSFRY
In words: cGMP production by HTRF in HEK293 cells overexpressing pGC-A. The format is cell-based. Here is the method:
Assay details: 20 nL of 10 μM test compound in DMSO was added to columns 5-48 of 1536 well white high base screening plates (Corning, New York, N.Y.) cells using 550 ECHO acoustic dispenser (Labcyte, San Jose, Calif.). […] HEK293 cells overexpressing GC-A were resuspended in assay media (OptimMem media containing 2% Heat-inactivated Fetal bovine serum and L-glutamine) at a density of 6×10^5 cells/mL and 2 μL were plated in screening plates (1200 cells/well) in suspension using a Bioraptr 2. Plates were spun at 1000 rpm for 1 min and incubated for 30 min at room temperature. 1.5 μL d2-labled cGMP followed by 1.5 uL Eu^3+ cryptate-labeled anti-cGMP cGMP detection kit (CiBio; #62GM2PEC) prepared according to manufacturer's protocol were added to all wells using a Bioraptr 2 and TR-FRET signal was detected on an EnVision detector (PerkinElmer).
In general terms: In TR-FRET formats the signal depends on donor and acceptor labels being close together.

Data set [1] deals with primary human cardiomyocytes (HCMs). In words: inhibition of TGF-beta 1 induced human cardiomyocyte hypertrophy. The format is cell-based. The conditions noted are these: TGF-β1 5 ng/mL. Here is the method: Methods (Inhibition of Human Cardiac Hypertrophy In Vitro): primary human cardiomyocytes (HCMs) were grown in growth media to 50% confluence and then were subjected to serum starvation for 24 hrs. After that, 5 ng/mL of the cytokine TGFβ-1 (R&D Systems) was added to the media for 48 hrs to induce HCM hypertrophy. […] Normal cell buffer served as a vehicle only control, where TGFP-1 alone served as the positive control. Analysis for cell surface area (μm^2) was performed using the ImageJ software at the end of the study.
Results: to further support the cGMP generation in human primary cells leads to favorable biological GC-A mediated, the anti-hypertrophic effects were assessed of Compound 19 on live HCMs stressed with TGF-β1 (5 ng/mL), using a state-of-the-art live cell imaging platform (IncuCyte System).

Data set [2] has as its system primary human adipocytes (HAs; visceral and subcutaneous). In words: cGMP generation in primary human adipocytes (visceral and subcutaneous). Type of data set: cell-based.
Data set [3] in a line: pharmacokinetics after IV and PO dosing. The format is in vivo, mouse. The conditions noted are these: plasma.
The target in data set [4] is T2, extracellular domain of human pGC-A (Homo sapiens, UniProt P16066).
T2 construct: the extracellular domain of human pGC-A was used
T2 sequence (P16066 33-473 limits assumed): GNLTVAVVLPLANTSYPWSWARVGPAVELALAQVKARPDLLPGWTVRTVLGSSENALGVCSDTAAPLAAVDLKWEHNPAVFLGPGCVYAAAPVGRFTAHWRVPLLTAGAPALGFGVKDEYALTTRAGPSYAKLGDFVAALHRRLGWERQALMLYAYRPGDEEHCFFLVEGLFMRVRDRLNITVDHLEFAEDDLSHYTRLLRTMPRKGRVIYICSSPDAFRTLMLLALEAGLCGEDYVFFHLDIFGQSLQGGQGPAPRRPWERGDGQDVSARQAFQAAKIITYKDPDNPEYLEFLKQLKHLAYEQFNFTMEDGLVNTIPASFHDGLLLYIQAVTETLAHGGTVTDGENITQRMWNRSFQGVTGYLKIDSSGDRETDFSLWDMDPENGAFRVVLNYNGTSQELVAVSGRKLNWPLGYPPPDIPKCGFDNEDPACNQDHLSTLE
Nature of the data set: SPR binding of compound 19 to pGC-A extracellular domain (Example 5). Here is the method: Binding Studies of compound 19 to Human pGC-A Receptor: Surface plasmon resonance (SPR) binding analysis was performed by employing the highly sensitive Biosensing Instrument 4500 system for small molecule binding. For these studies the extracellular domain of human pGC-A was used together with compound 19 at increasing concentrations.
On the technique in general: In SPR one partner is held on a chip, and binding of the other changes the refractive index at the surface.

For data set [5], the system named is primary human cardiomyocytes (HCMs). Nature of the data set: cGMP generation in primary human cardiomyocytes. Type of data set: cell-based.
The nature of the next data set: plasma stability, mouse. Type of data set: in vitro ADME.

pEC50, pKd: −log10 of the molar value.

Broadly, the pEC50 is the EC50 on a negative log10 scale, so that one unit is a factor of ten. For orientation: Cmax means the highest concentration seen after dosing. One may read the half-life as how long it takes for the measured level to halve. High values mean slow decline, low ones rapid decline. As usually defined, the AUC is the area under the concentration-time curve, a measure of exposure. Broadly, the pKd is the negative decadic logarithm of the Kd, by convention in mol/L. A high value points to a low Kd. In the case of `CN(C)CCN1CCCC(C(=O)Nc2nc3c(F)cc(F)cc3s2)C1` (stereo not drawn) [Compound 19], at pGC-A (HEK293, cGMP normalized to maximal amount produced by an EC80 concentration of ANP, read-out: Max efficacy), the Emax is 82%. The pEC50 at pGC-A (HEK293 pGC-A cells, cGMP HTRF, in the presence of EC20 concentration of ANP) was 6.41. In addition, the “cGMP activity in cells expressing pGC-A” value at pGC-A (in the absence of ANP) is recorded as “devoid of cGMP activity”. Further, the “inhibition of HCM hypertrophy” value in data set [1] (Compound 19 (1, 5, 10 μM) with ANP 10^−8 M) is “significant inhibition”; in data set [1] (Compound 19 (1, 5, 10 μM) with ANP 10^−10 M) it was “significant inhibition”. Besides, the cGMP generation entry in data set [2] (HAs, 1, 5 and 10 μM compound in the presence of ANP (10^−10 M)) is given as “clear increase in cGMP generation”; in data set [2] (HAs, compound alone at similar dose, no ANP) it was “did not generate cGMP generation”; in data set [5] (HCMs, 1, 5 or 10 μM compound in the presence of ANP (10^−10 M)) it was “clear increase in cGMP generation”; in data set [5] (HCMs, compound alone at similar dose, no ANP), “did not generate cGMP generation”. The clearance in data set [3] (Mean IV, mouse, 5 mg/kg) came out at 20.3 mL/min/kg. Further, in data set [3] (Mean IV, mouse, 5 mg/kg, read-out: Vdss), the Vd stood at 16.8 L/kg. The same molecule displayed a Cmax in data set [3] (Mean PO, Mouse, 10 mg/kg) of 605 ng/mL. Further, in data set [3] (Mean PO, Mouse, 10 mg/kg), the half-life was 548 min. Moreover, in data set [3] (Mean PO, Mouse, 10 mg/kg, read-out: Exposure (AUC)), the area under the curve (AUC) was 7100 ng·h/mL. Also, the bioavailability in data set [3] (Mouse, PO 10 mg/kg vs IV 5 mg/kg) was determined as 107%. Moreover, the “binding to human pGC-A” value in data set [4] (Response (RU) increasing with concentration) is on record as “clearly validated”. The molecule further had a negative-log Kd (pKd) in data set [4] (compound 2.5 to 20 μM with 0.25 μM pGC-A receptor extracellular domain) of 5.39. Besides, the “Plasma Stability (% remaining at 1 h)” value in “plasma stability, mouse” came out at 109.7%.
